From patent US8829014B2, “Thiazole and thiophene analogues, and their use in treating autoimmune diseases and cancers” (Board of Supervisors of Louisiana State University and …, priority 2006, dated 2014)
Marks after values point to notes of the source that are not given here.

Experiments:
Format in all cases: cell-based
[1] = tested on: eIF4E; experiment: eIF4E inhibitor screen: luciferase under FGF 5′UTR in FaDu cells (highly cap-dependent translation); conditions: for inhibition of highly cap-dependent translation (summary statement): summary in the disclosure
Description: Since highly cap-dependent translation is associated with synthesis of proteins involved in cancer, a compound that inhibits this pathway may be used as an anti-cancer agent. The assay was developed by cloning the highly structured 5′ UTR of FGF, which requires high levels of eIF4E before protein synthesis can initiate, into the proper orientation of the reporter gene luciferase, and then stably transfecting the modified luciferase gene into the cell line FaDu that is known to have high levels of eIF4E. The activity of luciferase is then monitored in the presence and absence of the tested compound.
Generation of Stable Cell Lines: The pMS110 plasmid (pGL3-control plasmid from Promega which contains a neo selectable marker) was used to generate pMS110-5′UTR by cloning the 5′ UTR of FGF just upstream of the luciferase AUG start codon. FaDu cells, a head and neck cancer cell line, were transfected using Lipofectamine2000 (Invitrogen). Twenty-four hours after transfection G418 was added at 500 μg/ml. Cells were maintained in G418 for 14 days, and then individual colonies were transferred to a 96-well plate for propagation. Individual clones were analyzed for luciferase expression by plating 10^4 cells per well in a 96-well plate for 24 hours before lysing the cells and analyzing for luciferase activity in a Victor III (Perkin Elmer) or Lucy2 (Rosys Anthos). FaDu9000 and FaDuUTR were the clones that expressed the highest level of active luciferase following transfection of pMS110 and pMS110-5′UTR, respectively.
Analysis of Rapamycin Responsiveness: Cells of FaDu9000 and FaDuUTR were plated at 1×10^4 cells/well in a 96-well dish. Twenty-four hours after plating, 0.1% DMSO (vehicle control) or 10 nM rapamycin were added to each well, and the cells were maintained for an additional 24 or 48 hours. The cells were then lysed and luciferase activity was determined using BriteGlo (Promega) as per manufacturer's instruction and recorded using the Victor III. Following subtraction of background activity, the mean value of quadruplicate samples for a given experiment was determined, and the treated cells were normalized to the control. At least four separate experiments were conducted, and the mean and standard error were calculated. To determine if rapamycin affected cell viability, an MTS assay (Cell Proliferation One Solution, Promega) was carried out on each population at 48 hours in two separate experiments.
The FaDu cell line stably transfected with FGF 5′UTR was used to screen thirty-nine representative compounds, each at a concentration of 1.0 μM. Additional cells were treated with vehicle, 0.3% DMSO. Cells were plated for twenty-four hours in a 96-well plate. Each compound was then added to triplicate wells, and the cells were incubated for forty-eight hours before measuring luciferase activity as above. The mean luciferase activity was measured using Promega's Brite-Glo kit, and the mean for each sample was normalized to DMSO. The experiment was then repeated, and the average and standard deviation of the two experiments were determined (FIG. 8).

[2] = tested on: vascular smooth muscle cells (VSMC); experiment: Trypan blue viability count in VSMC; conditions: rat, 48 h, 10 μM
Procedure: (§1) Additional compounds have also been tested for their ability to inhibit both TNF-α-induced NF-κB—expression and PMA-induced AP-1 expression. In both tests, the compound was added for 1 h, then the appropriate inducer was added, and luciferase activity was monitored 24 h later. Values were then normalized to the vehicle control, DMSO. Following the initial luciferase screens, studies were conducted to assess the cytotoxicity of the compounds in normal cells such as VSMC, HUVEC, or HPT cells. Human umbilical vein endothelial cells (HUVEC) represent the normal endothelium, vascular smooth muscle cells (VSMC) were represented by cells from the adult rat aorta, and human proximal tubule (HPT) cells represent the normal proximal tubule in vivo. These cells were grown to near confluency in multi-well plates, and were then treated for 48 h with either vehicle (0.1% DMSO) or 10 μM of each drug candidate. Following treatment, the media from the VSMC and HUVEC incubations were removed, and the amount of lactate dehydrogenase (LDH) released into the medium was determined with a commercial kit. LDH is normally confined to the cytosol, and its release represents “leakiness” of the plasma membrane. LDH activity was expressed as % increase over vehicle-treated cells. In another assay of viability, the treated VSMC and HUVEC were removed by trypsinization and treated with trypan blue, a dye that is taken up only by dead cells. The number of both live and dead cells was counted using an automated cell viability analyzer. The % decrease in numbers of viable cells was determined. Toxicity in the treated HPT cells was determined by the ethidium homodimer (EthHD) uptake assay. EthHD is a fluorescent dye that is excluded from live cells, but is taken up by cells that have lost permeability barriers. Inside the cell, EthHD produces a strong fluorescent signal, which is proportional to the number of dead cells. Results were expressed as a % increase in cell death over vehicle-treated cells. The lead compounds were also tested in two pairs of cell lines from either the skin or prostate, one tumorigenic and one non-tumorigenic, to test for any differences in toxicity or heightened sensitivity in the tumorigenic lines. The cells were treated for 48 h with vehicle (0.1% DMSO) or 10 μM of each drug candidate. Following treatment, the viability of the cells was determined by the MTT assay. In this assay, the MTT dye is converted only in viable cells by intracellular enzymes to a colorimetric product that is quantitated by a microplate reader.

[3] = tested on: human proximal tubule (HPT) cells; experiment: Ethidium homodimer (EthHD) uptake toxicity assay in HPT cells; conditions: 10 μM, 48 h, relative to vehicle
Procedure: as §1
For the results in Table 13, cells were grown to near confluency in multi-well plates, then treated for 48 h with either vehicle (0.1% DMSO) or 10 μM of each drug candidate. Following treatment, the media from the VSMC and HUVEC incubations were removed, and the amount of lactate dehydrogenase (LDH) released into the medium was determined with a commercial kit and expressed as a % increase over vehicle-treated cells. HPT toxicity was determined by the ethidium homodimer (EthHD) uptake assay. Inside the cell, EthHD produces a strong fluorescent signal, which is proportional to the amount of cell death, expressed as a % increase in cell death over vehicle-treated cells. The lead compounds were also tested in two pairs of cell lines from the skin or prostate, one tumorigenic and one non-tumorigenic, to test for differing toxicity or heightened sensitivity in the tumorigenic lines. The cells were treated for 48 h with vehicle (0.1% DMSO) or 10 μM of each drug candidate, and the viability of the cells was determined by the MTT assay, expressed as a % decrease in viability compared to vehicle-treated cells. The in vivo inflammation model measured the % inhibition of rat paw edema induced by carageenan injection.

Row | Compound | inhibition of highly cap-dependent translation (summary statement) [1] | Viable Cells % Decrease VSMC [2] | Cell Death (EthHD) % Increase HPT [3] | luciferase expression under the control of the FGF 5′UTR ([1]; 1.0 μM, 48 h, FaDu UTR cells, normalized to DMSO (FIG. 8)) | inhibition of luciferase activity (FGF 5′UTR) ([1]; highest concentration tested)
1 | COc1ccc(-n2c(-c3sc(Nc4ccc(Cl)cc4)nc3-c3ccccc3)nc3ccccc3c2=O)cc1 [Example 225, 2-[2-(4-Chloro-phenylamino)-4-phenyl-thiazol-5-yl]-3-(4-methoxyphenyl)-3H-quinazolin-4-one] | capable of inhibiting | – | – | – | –
2 | CNc1nc(C)c(-c2nc3ccccc3c(=O)n2-c2ccc(Cl)cc2)s1 [Example 244, 2-(4-Methyl-2-methylamino-thiazol-5-yl)-3-(4-chloro-phenyl)-3H-quinazolin-4-one] | – | 70# % | 180# % | – | –
3 | Bis-[2-(4-Chloro-phenylamino)-4-benzayl-thiazole-5-yl]-methanone [Example 134] | capable of inhibiting | – | – | inhibited luciferase expression | > 60%
